Literature values in US20050272714A1, “Use of targeted oxidative therapeutic formulation in treatment of diabetes and obesity” (priority 2004, published 2005).

Key:
[1] = system: peroxide-sensitive E. coli; conditions: infused into the blood of infected rabbits
[2] = system: E. coli; conditions: increasing concentration ex-vivo in rabbit or human blood

OO [hydrogen peroxide]
bactericidal effect [1]: no bactericidal effect | direct bactericidal activity [2]: no evidence of direct bactericidal activity
